Columns and labels:
[1] = DRUGMATRIX: Leukotriene, BLT (LTB4) radioligand binding (ligand: [3H]LTB4); format: cell membranes, Membrane; conditions: u-937; Not Active = under 50% inhibition at 10 µM
[2] = biological target: Kappa-type opioid receptor (Homo sapiens, UniProt P41145); test: DRUGMATRIX: Opiate kappa (OP2, KOP) radioligand binding (ligand: [3H] Diprenorphine); format: cell membranes, HEK293, Membrane; conditions: Not Active = under 50% inhibition at 10 µM
[3] = biological target: T1, Neuropeptide Y receptor type 2 (Homo sapiens, UniProt P49146); format: cell membranes, Membrane; conditions: kan-ts; note: in other assays of this panel Not Active means under 50% inhibition at 10 µM
T1 sequence (P49146 whole entry): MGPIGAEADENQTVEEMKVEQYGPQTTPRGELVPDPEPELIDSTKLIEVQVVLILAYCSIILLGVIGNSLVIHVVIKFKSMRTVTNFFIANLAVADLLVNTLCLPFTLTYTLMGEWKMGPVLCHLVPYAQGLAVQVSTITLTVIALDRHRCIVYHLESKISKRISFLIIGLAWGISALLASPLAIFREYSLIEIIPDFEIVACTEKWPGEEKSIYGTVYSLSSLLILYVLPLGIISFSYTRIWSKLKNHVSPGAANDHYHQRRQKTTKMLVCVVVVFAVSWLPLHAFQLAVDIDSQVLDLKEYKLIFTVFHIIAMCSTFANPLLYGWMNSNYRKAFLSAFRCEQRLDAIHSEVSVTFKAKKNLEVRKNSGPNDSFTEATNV

[4] = biological target: T2, 5-hydroxytryptamine receptor 1A (Rattus norvegicus, UniProt P19327); format: cell membranes, CHO-K1, Membrane; note: in other assays of this panel Not Active means under 50% inhibition at 10 µM
T2 sequence (P19327 whole entry): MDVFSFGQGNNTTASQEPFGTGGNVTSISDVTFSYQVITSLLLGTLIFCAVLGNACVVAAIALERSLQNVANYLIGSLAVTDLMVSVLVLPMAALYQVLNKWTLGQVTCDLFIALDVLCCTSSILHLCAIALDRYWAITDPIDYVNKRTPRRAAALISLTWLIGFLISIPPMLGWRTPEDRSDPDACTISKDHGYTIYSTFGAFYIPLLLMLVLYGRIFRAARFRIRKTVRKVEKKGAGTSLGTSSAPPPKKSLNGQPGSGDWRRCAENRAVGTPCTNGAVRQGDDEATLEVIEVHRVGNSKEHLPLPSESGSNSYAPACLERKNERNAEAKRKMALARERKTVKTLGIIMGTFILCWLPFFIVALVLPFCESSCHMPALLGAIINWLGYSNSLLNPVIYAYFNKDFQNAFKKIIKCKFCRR

D(3) dopamine receptor = D(3) dopamine receptor (Homo sapiens, UniProt P35462); test: DRUGMATRIX: Dopamine D3 radioligand binding (ligand: [3H] Spiperone); format: cell membranes, CHO, Membrane
Chain of D(3) dopamine receptor (P35462 whole entry): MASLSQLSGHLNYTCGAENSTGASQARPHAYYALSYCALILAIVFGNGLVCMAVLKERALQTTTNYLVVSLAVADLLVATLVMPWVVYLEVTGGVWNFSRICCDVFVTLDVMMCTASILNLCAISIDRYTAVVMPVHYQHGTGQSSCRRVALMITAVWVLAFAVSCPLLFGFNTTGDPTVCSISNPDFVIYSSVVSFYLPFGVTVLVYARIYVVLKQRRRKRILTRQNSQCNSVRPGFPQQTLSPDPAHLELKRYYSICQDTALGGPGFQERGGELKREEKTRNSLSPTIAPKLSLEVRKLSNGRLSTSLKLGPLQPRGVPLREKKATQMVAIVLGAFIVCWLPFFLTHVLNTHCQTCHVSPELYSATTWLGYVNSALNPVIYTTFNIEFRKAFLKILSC

[5] = DRUGMATRIX: Interleukin IL-1 radioligand binding (ligand: [125I] interleukin 1beta); format: cell membranes, Membrane; conditions: nih3t3; Not Active = under 50% inhibition at 10 µM

Chain of Kappa-type opioid receptor (P41145 whole entry): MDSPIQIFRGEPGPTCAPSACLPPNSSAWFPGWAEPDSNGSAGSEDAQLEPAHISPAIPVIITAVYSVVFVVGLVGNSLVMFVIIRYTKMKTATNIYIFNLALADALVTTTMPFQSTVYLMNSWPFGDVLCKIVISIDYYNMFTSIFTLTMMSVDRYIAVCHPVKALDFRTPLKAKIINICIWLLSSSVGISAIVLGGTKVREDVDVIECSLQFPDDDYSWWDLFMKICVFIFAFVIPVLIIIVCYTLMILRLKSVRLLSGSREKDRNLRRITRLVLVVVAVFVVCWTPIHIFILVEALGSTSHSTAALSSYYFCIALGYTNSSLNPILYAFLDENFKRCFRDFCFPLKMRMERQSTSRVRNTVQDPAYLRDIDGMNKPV

Molecule	IC50 [1]	Ki [1]	IC50 ([2]; hek293)	IC50 [3]	IC50 ([4]; cho-k1)	IC50 (D(3) dopamine receptor; cho)	IC50 [5]	Ki [5]	Ki [2] [nM]	IC50 ([2]; read-out: IC50) [nM]	IC50 (D(3) dopamine receptor; read-out: IC50) [nM]	Ki (D(3) dopamine receptor; read-out: Ki) [nM]	IC50 ([4]; read-out: IC50) [nM]	Ki ([4]; read-out: Ki) [nM]	Ki [3]	Ki ([4]; cho-k1)	Ki (D(3) dopamine receptor; cho)
COc1ccccc1OCC(O)COC(N)=O (stereo unspecified) [METHOCARBAMOL]	Not Active	Not Active	Not Active	Not Active	Not Active	Not Active	Not Active	Not Active									
CO[C@@]1(NC(=O)CSCC#N)C(=O)N2C(C(=O)O)=C(CSc3nnnn3C)CS[C@@H]21 [CEFMETAZOLE]	Not Active	Not Active	Not Active	Not Active	Not Active	Not Active	Not Active	Not Active									
C=C(CC)C(=O)c1ccc(OCC(=O)O)c(Cl)c1Cl [ETHACRYNIC ACID]	Not Active	Not Active	Not Active	Not Active	Not Active	Not Active	Not Active	Not Active									
Oc1ccccc1O [CATECHOL]	Not Active	Not Active	Not Active	Not Active	Not Active	Not Active	Not Active	Not Active									
CC(C)(CO)C(O)C(=O)NCCCO (stereo unspecified) [PANTHENOL]	Not Active	Not Active	Not Active	Not Active	Not Active	Not Active	Not Active	Not Active									
NC(=O)N1c2ccccc2C=Cc2ccccc21 [CARBAMAZEPINE]	Not Active	Not Active	Not Active	Not Active	Not Active	Not Active	Not Active	Not Active									
CN(Cc1cnc2nc(N)nc(N)c2n1)c1ccc(C(=O)N[C@@H](CCC(=O)O)C(=O)O)cc1 [METHOTREXATE]	Not Active	Not Active	Not Active	Not Active	Not Active	Not Active	Not Active	Not Active									
O=P1(N(CCCl)CCCl)NCCCO1 (stereo unspecified) [CYCLOPHOSPHAMIDE ANHYDROUS]	Not Active	Not Active	Not Active	Not Active	Not Active	Not Active	Not Active	Not Active									
C[C@]12CCC(=O)C=C1CC[C@@H]1[C@@H]2[C@@H](O)C[C@@]2(C)[C@H]1CC[C@]2(O)C(=O)CO [HYDROCORTISONE]	Not Active	Not Active	Not Active	Not Active	Not Active	Not Active	Not Active	Not Active									
Cc1cccc(Nc2ccccc2C(=O)O)c1C [MEFENAMIC ACID]	Not Active	Not Active	Not Active	Not Active	Not Active	Not Active	Not Active	Not Active									
CCn1cc(C(=O)O)c(=O)c2cc(F)c(N3CCNCC3)nc21 [ENOXACIN]	Not Active	Not Active	Not Active	Not Active	Not Active	Not Active	Not Active	Not Active									
Cc1c(N(C)CS(=O)(=O)[O-])c(=O)n(-c2ccccc2)n1C.[Na+] [DIPYRONE SODIUM]	Not Active	Not Active	Not Active	Not Active	Not Active	Not Active	Not Active	Not Active									
C#C[C@]1(O)CC[C@H]2[C@@H]3CCC4=Cc5oncc5C[C@]4(C)[C@H]3CC[C@@]21C [DANAZOL]	Not Active	Not Active		Not Active	Not Active		Not Active	Not Active	6210	15500	28900	9800					
CC(=O)O[C@]1(C(C)=O)CC[C@H]2[C@@H]3C=C(C)C4=CC(=O)CC[C@]4(C)[C@H]3CC[C@@]21C [MEGESTROL ACETATE]	Not Active	Not Active	Not Active	Not Active	Not Active	Not Active	Not Active	Not Active									
CCOC(=O)n1ccn(C)c1=S [CARBIMAZOLE]	Not Active	Not Active	Not Active	Not Active	Not Active	Not Active	Not Active	Not Active									
CN1C(=O)CN=C(c2ccccc2)c2cc(Cl)ccc21 [DIAZEPAM]	Not Active	Not Active	Not Active	Not Active	Not Active	Not Active	Not Active	Not Active									
NC[C@H]1O[C@H](O[C@H]2[C@H](O)[C@@H](O[C@H]3O[C@H](CO)[C@@H](O)[C@H](N)[C@H]3O)[C@H](N)C[C@@H]2N)[C@H](O)[C@@H](O)[C@@H]1O [KANAMYCIN]	Not Active	Not Active	Not Active	Not Active	Not Active	Not Active	Not Active	Not Active									
COc1cc(CNC(=O)CCCC/C=C/C(C)C)ccc1O [CAPSAICIN]	Not Active	Not Active	Not Active	Not Active	Not Active	Not Active	Not Active	Not Active									
C[C@H](C(=O)O)c1cccc(C(=O)c2ccccc2)c1 [DEXKETOPROFEN]	Not Active	Not Active	Not Active	Not Active	Not Active	Not Active	Not Active	Not Active									
NC[C@@H]1O[C@H](O[C@H]2[C@@H](O)[C@H](O[C@@H]3[C@@H](O)[C@H](N)C[C@H](N)[C@H]3O[C@H]3O[C@H](CN)[C@@H](O)[C@H](O)[C@H]3N)O[C@@H]2CO)[C@H](N)[C@@H](O)[C@@H]1O [FRAMYCETIN]	Not Active	Not Active	Not Active	Not Active	Not Active	Not Active	Not Active	Not Active									
Nc1nc(N)nc(NC2CC2)n1 [CYROMAZINE]	Not Active	Not Active		Not Active	Not Active	Not Active	Not Active	Not Active									
CN1C[C@H](C(=O)N[C@]2(C)O[C@@]3(O)[C@@H]4CCCN4C(=O)[C@H](Cc4ccccc4)N3C2=O)C[C@@H]2c3cccc4[nH]cc(c34)C[C@H]21 [DIHYDROERGOTAMINE]	Not Active	Not Active		Not Active			Not Active	Not Active			5.34	1.81	0.659	0.377			
POLYVINYL ALCOHOL	Not Active	Not Active		Not Active	Not Active	Not Active	Not Active	Not Active							Not Active	Not Active	Not Active
COBALT(II) ACETYLACETONATE	Not Active	Not Active		Not Active	Not Active	Not Active	Not Active	Not Active							Not Active	Not Active	Not Active
INSULIN HUMAN	Not Active	Not Active		Not Active	Not Active	Not Active	Not Active	Not Active							Not Active	Not Active	Not Active
Clc1cc2c(cc1Cl)Oc1cc(Cl)c(Cl)cc1O2 [2,3,7,8-TETRACHLORODIBENZO-P-DIOXIN]	Not Active	Not Active		Not Active	Not Active	Not Active	Not Active	Not Active									
CC(C)C[C@H]1C(=O)N2CCC[C@H]2[C@]2(O)O[C@](NC(=O)[C@@H]3C=C4c5cccc6[nH]c(Br)c(c56)C[C@H]4N(C)C3)(C(C)C)C(=O)N12 [BROMOCRIPTINE]	Not Active	Not Active		Not Active			Not Active	Not Active			0.596	0.202	5.64	3.22			
COc1ccc(Cc2nccc3cc(OC)c(OC)cc23)cc1OC [PAPAVERINE]	Not Active	Not Active		Not Active	Not Active	Not Active	Not Active	Not Active									

From ChEMBL document CHEMBL1909046, “DrugMatrix in vitro pharmacology data”
